Assay [1] has as its target T1, MMP-2 (Homo sapiens, UniProt P08253).
T1 construct: purchased Oncogene Research Products (Calbiochem) PF023
T1 sequence (P08253 110-660): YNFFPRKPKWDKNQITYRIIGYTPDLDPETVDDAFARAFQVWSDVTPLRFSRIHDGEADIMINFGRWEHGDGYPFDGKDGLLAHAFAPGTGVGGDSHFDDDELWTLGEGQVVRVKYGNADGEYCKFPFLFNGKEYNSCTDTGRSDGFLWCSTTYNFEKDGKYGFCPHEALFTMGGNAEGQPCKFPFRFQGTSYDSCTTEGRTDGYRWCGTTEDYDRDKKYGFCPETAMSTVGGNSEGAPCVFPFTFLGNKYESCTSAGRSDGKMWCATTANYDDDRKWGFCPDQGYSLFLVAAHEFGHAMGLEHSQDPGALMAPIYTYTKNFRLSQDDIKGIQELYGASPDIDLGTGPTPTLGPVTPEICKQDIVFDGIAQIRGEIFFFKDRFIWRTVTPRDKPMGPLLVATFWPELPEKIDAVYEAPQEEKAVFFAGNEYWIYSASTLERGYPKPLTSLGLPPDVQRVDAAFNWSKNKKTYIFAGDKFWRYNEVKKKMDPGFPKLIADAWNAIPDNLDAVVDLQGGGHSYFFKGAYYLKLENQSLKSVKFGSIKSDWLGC
Description: In-vitro fluorescence assay of MMP-2 activity. Type of assay: biochemical. The settings on record: recombinant human MMP-2; read-out: MMP-2 IC50.
Description: A continuous assay was used in which the substrate is a synthetic peptide containing a fluorescent group (7-methoxycoumarin; Mca) which is quenched by energy transfer to a 2,4-dinitrophenyl group. […] The source of enzyme in the assay was the recombinant human MMP-2 (66 kDa) purchased from Oncogene Research Products (catalog number PF023 from Calbiochem). The substrate used was Mca-PQGL-(3-[2,4-dinitrophenyl]-L-2,3-diaminopropionyl)-AR-OH (denoted as Wammp-5, custom synthesized by AnaSpec, Inc.). The assay buffer consisted of 50 mM Hepes (pH 7.4), 100 mM NaCl, 5 mM CaCl2, and 0.005% Brij-35. […] The enzymatic reactions were initiated by adding the substrate to a final concentration of 20 μM, and mixing 10 times with a pipette. The final DMSO concentration in the assay was 6.0%.
(§1) Plots of the inhibitor concentration vs. the percent inhibition were fit to the following equation: y=(a−d)/[1+(x/c)^b]+d, a general sigmoidal curve with Hill slope, a to d. x is the inhibitor concentration under test. y is the percent inhibition. a is the limiting response as x approaches zero. As x increases without bound, y tends toward its limit d. c is the inflection point (IC50) for the curve. That is, y is halfway between the lower and upper asymptotes when x=c. b is the slope factor or Hill coefficient.

In assay [2] the target is T2, MMP-13 (Homo sapiens, UniProt P45452).
T2 construct: made in house
Description: In-vitro fluorescence assay of MMP-13 activity. In kind it is biochemical.
Description: A continuous assay was used in which the substrate is a synthetic peptide containing a fluorescent group (7-methoxycoumarin; Mca) which is quenched by energy transfer to a 2,4-dinitrophenyl group. […] The substrate used was Mca-PQGL-(3-[2,4-dinitrophenyl]-L-2,3-diaminopropionyl)-AR-OH (denoted as Wammp-5, custom synthesized by AnaSpec, Inc.). The assay buffer consisted of 50 mM Hepes (pH 7.4), 100 mM NaCl, 5 mM CaCl2, and 0.005% Brij-35. Each well of black polystyrene 96-well plates contained a 200 μL reaction mixture consisting of assay buffer, purified MMP (final concentration of 0.5 nM, prepared by diluting with the assay buffer), and varied concentrations of inhibitor (prepared by serially diluting a given inhibitor in DMSO in 96-well polypropylene plate). […] The enzymatic reactions were initiated by adding the substrate to a final concentration of 20 μM, and mixing 10 times with a pipette. The final DMSO concentration in the assay was 6.0%.
as §1

Where [3] appears, read: recombinant human catalytic domain of MMP-13, read-out: MMP-13 IC50.

A word on the IC50: it is the midpoint of a concentration-inhibition curve.

Structures are written as SMILES. Where a name gives a salt, the structure may show the parent alone. Read-outs that look alike come from different tables or passages of the source.

For the compound `Cc1c(C(=O)Nc2ccc(-c3ccc(S(=O)(=O)N[C@H](C(=O)O)C(C)C)cc3)cc2)oc2cccc(NS(=O)(=O)c3ccccc3)c12` [Example 71, L-2-{4′-[(4-Benzenesulfonylamino-3-methyl-benzofuran-2-carbonyl)-amino]-biphenyl-4-sulfonylamino}-3-methyl-butyric acid], the figures for the IC50 in assay [1] and in assay [2] (setting [3]) were 6.02 µM and 0.0081 µM, respectively.

For the compound `CCn1c(C(=O)Nc2ccc(-c3ccc(S(=O)(=O)N[C@H](C(=O)O)C(C)C)cc3)nc2)nc2ccccc21` [Example 162, L-2-(4-{5-[(1-Ethyl-1H-benzimidazole-2-carbonyl)-amino]-pyridin-2-yl}-benzenesulfonylamino)-3-methyl-butyric acid], the values for the half-inhibitory concentration (IC50) in assay [1] and in assay [2] (setting [3]) were 2.61 µM and 0.085 µM, respectively.

For the compound `Cc1c(C(=O)Nc2ccc(-c3ccc(S(=O)(=O)N[C@H](C(=O)O)C(C)O)cc3)cc2)oc2cccc(NS(C)(=O)=O)c12` (stereo partly drawn) [Example 65, L-3-Hydroxy-2-{4′-[(4-methanesulfonylamino-3-methyl-benzofuran-2-carbonyl)-amino]-biphenyl-4-sulfonylamino}-butyric acid], the half-maximal inhibitory concentration (IC50) in assay [1] came to 2.47 µM; in assay [2] (setting [3]), 0.0109 µM.

`Cc1c(C(=O)Nc2ccc(-c3ccc(S(=O)(=O)N[C@H](C(=O)O)C(C)C)cc3)cc2)oc2cccc(C(=O)N(C)C)c12` [Example 43B, 2-{4′-[(4-dimethylcarbamoyl-3-methyl-benzofuran-2-carbonyl)-amino]-biphenyl-4-sulfonylamino}-3-methyl-butyric acid triethylamine salt]: the IC50 was 7.77 µM in assay [1] and 0.018 µM in assay [2] (setting [3]).

`Cc1c(C(=O)Nc2ccc(-c3ccc(S(=O)(=O)N[C@H](C(=O)O)C(C)C)cc3)cc2)oc2cccc(C#CCO)c12` [Example 26, L-2-(4′-{[4-(3-Hydroxy-prop-1-ynyl)-3-methyl-benzofuran-2-carbonyl]-amino}-biphenyl-4-sulfonylamino)-3-methyl-butyric acid]: the half-inhibitory concentration (IC50) in assay [1] turned out to be 3.38 µM; in assay [2] (setting [3]), 0.0062 µM.

With `Cc1c(C(=O)Nc2ccc(-c3ccc(S(=O)(=O)N[C@H](C(=O)O)C(C)C)cc3)cc2)oc2cccc(NC(=O)C(F)(F)F)c12` [Example 67, L-3-Methyl-2-(4′-{[3-methyl-4-(2,2,2-trifluoro-acetylamino)-benzofuran-2-carbonyl]-amino}-biphenyl-4-sulfonylamino)-butyric acid], the values for the IC50 in assay [1] and in assay [2] (setting [3]) were 5.75 µM and 0.02 µM, respectively.

For the compound `Cc1c(C(=O)Nc2ccc(-c3ccc(S(=O)(=O)N[C@H](C(=O)O)C(C)C)cc3)cc2)oc2cccc(OCCNC(=O)OC(C)(C)C)c12` [Example 177, (S)-2-(4′-{[4-(2-tert-Butoxycarbonylamino-ethoxy)-3-methyl-benzofuran-2-carbonyl]-amino}-biphenyl-4-sulfonylamino)-3-methyl-butyric acid], the half-inhibitory concentration (IC50) in assay [1] came to 3 µM; in assay [2] (setting [3]), 0.015 µM.

For the compound `CC(C)[C@H](NS(=O)(=O)c1ccc(-c2ccc(NC(=O)c3cc4cc([N+](=O)[O-])ccc4o3)cc2)cc1)C(=O)O` [Example 6, N-[(4′-{[(5-nitro-1-benzofuran-2-yl)carbonyl]amino}-1,1′-biphenyl-4-yl)sulfonyl]-L-valine], the IC50 in assay [1] worked out at 0.0033 µM; in assay [2] (setting [3]) it was 0.0007 µM.

Regarding `Cc1c(C(=O)Nc2ccc(-c3ccc(S(=O)(=O)N(C)[C@H](C(=O)O)C(C)C)cc3)cc2)oc2cccc(NS(C)(=O)=O)c12` [Example 64, L-2-({4′-[(4-Methanesulfonylamino-3-methyl-benzofuran-2-carbonyl)-amino]-biphenyl-4-sulfonyl}-methyl-amino)-3-methyl-butyric acid], the figures for the concentration for half-maximal inhibition (IC50) in assay [1] and in assay [2] (setting [3]) were 6.94 µM and 0.063 µM, respectively.

As to `COC/C=C\c1cccc2oc(C(=O)Nc3ccc(-c4ccc(S(=O)(=O)N[C@H](C(=O)O)C(C)C)cc4)cc3)c(C)c12` [Example 25, L-2-(4′-{[4-(3-Methoxy-Z-propenyl)-3-methyl-benzofuran-2-carbonyl]-amino}-biphenyl-4-sulfonylamino)-3-methyl-butyric acid], the values for the half-maximal inhibitory concentration (IC50) in assay [1] and in assay [2] (setting [3]) were 6.32 µM and 0.014 µM, respectively.

Take `Cc1c(C(=O)Nc2ccc(-c3ccc(S(=O)(=O)N[C@H](C(=O)O)C(C)C)cc3)cc2)oc2cccc(C3COC(C)(C)O3)c12` (stereo partly drawn) [Example 91, N-{[4′-({[4-(2,2-Dimethyl-1,3-dioxolan-4-yl)-3-methyl-1-benzofuran-2-yl]carbonyl}amino)-1,1′-biphenyl-4-yl]sulfonyl}-L-valine]: the IC50 in assay [1] was 2.23 µM; in assay [2] (setting [3]), 0.0069 µM.

Consider `CC(C)[C@H](NS(=O)(=O)c1ccc(-c2ccc(NC(=O)c3nc4cc(C(F)(F)F)ccc4s3)cc2)cc1)C(=O)O` [Example 131, (S)-3-Methyl-2-{4′-[(5-trifluoromethyl-benzothiazole-2-carbonyl)-amino]-biphenyl-4-sulfonylamino}-butyric acid], for which the 50% inhibitory concentration (IC50) in assay [1] was 0.149 µM; in assay [2] (setting [3]) it was 0.017 µM.

As to `CC(C)C(NS(=O)(=O)c1ccc(-c2ccc(NC(=O)c3cc4cc(NS(C)(=O)=O)ccc4o3)cc2)cc1)C(=O)O` (stereo in doubt) [Example 8, N-({4′-[({5-[(methylsulfonyl)amino]-1-benzofuran-2-yl}carbonyl)amino]-1,1′-biphenyl-4-yl}sulfonyl)-L-valine], the concentration for half-maximal inhibition (IC50) was determined as 0.0039 µM in assay [1] and 0.0004 µM in assay [2] (MMP-13 IC50, recombinant human catalytic domain of MMP-13).

Regarding `NC(=O)C[C@H](NS(=O)(=O)c1ccc(-c2ccc(NC(=O)c3cc4ccccc4o3)cc2)cc1)C(=O)O` [Example 15, N2-({4′-[(1-Benzofuran-2-ylcarbonyl)animo]-1,1′-biphenyl-4-yl}sulfonyl)-L-Asparagine], the figures for the half-inhibitory concentration (IC50) in assay [1] and in assay [2] (setting [3]) were 0.01 µM and 0.0025 µM, respectively.

As for `Cc1c(C(=O)Nc2ccc(-c3ccc(S(=O)(=O)N[C@H](C(=O)O)C(C)C)cc3)nc2)oc2cccc(NS(C)(=O)=O)c12` [Example 39, L-2-(4-{5-[(4-Methanesulfonylamino-3-methyl-benzofuran-2-carbonyl)-amino]-pyridin-2-yl}-benzenesulfonylamino)-3-methyl-butyric acid], the half-maximal inhibitory concentration (IC50) in assay [1] turned out to be 7.5 µM; in assay [2] (setting [3]) it was 0.03 µM.

Consider `Cc1c(C(=O)Nc2ccc(-c3ccc(S(=O)(=O)N[C@H](C(=O)O)C(C)C)cc3)cc2)oc2cccc(CCC3CC3)c12` [Example 24, L-2-(4′-{[4-(2-Cyclopropyl-ethyl)-3-methyl-benzofuran-2-carbonyl]-amino}-biphenyl-4-sulfonylamino)-3-methyl-butyric acid], for which the IC50 came out at 8 µM in assay [1] and 0.024 µM in assay [2] (setting [3]).

Regarding `CCc1ccc2oc(C(=O)Nc3ccc(-c4ccc(S(=O)(=O)N[C@H](C(=O)O)C(C)C)cc4)cc3)c(C)c2c1OC` [Example 86, N-[(4′-{[(5-Ethyl-4-methoxy-3-methyl-1-benzofuran-2-yl)carbonyl]amino}-1,1′-biphenyl-4-yl)sulfonyl]-L-valine], the results for the concentration for half-maximal inhibition (IC50) in assay [1] and in assay [2] (setting [3]) were 2.5 µM and 0.0038 µM, respectively.

Regarding `Cc1c(C(=O)Nc2ccc(-c3ccc(S(=O)(=O)N[C@H](C(=O)O)C(C)C)cc3)cc2)oc2cccc(NS(=O)(=O)C(C)C)c12` [Example 69, L-3-Methyl-2-(4′-{[3-methyl-4-(propane-2-sulfonylamino)-benzofuran-2-carbonyl]-amino}-biphenyl-4-sulfonylamino)-butyric acid], the values for the IC50 in assay [1] and in assay [2] (setting [3]) were 2.34 µM and 0.016 µM, respectively.

The record behind these values is patent publication US7420001B2 (Wyeth, priority 2003, dated 2008).
